Assays:
NLRP3 inflammasome = NLRP3 inflammasome (Homo sapiens, UniProt Q96P20); test: NLRP3 inflammasome activation in THP1 macrophages (LPS priming, nigericin), IL-1β AlphaLISA; format: cell-based; details: PMA-differentiated THP1, LPS 20 ng/ml 3 hrs, compound 1 hr, Nigericin 6.7 uM 3 hrs, supernatant
IL-6 = IL-6 release from LPS-primed, nigericin-treated THP1 macrophages, Hu IL-6 AlphaLISA; format: cell-based; details: Homo sapiens, THP-1; PMA-differentiated THP1, LPS 20 ng/ml 3 hrs, compound 1 hr, Nigericin 6.7 uM 3 hrs, supernatant

Chain of NLRP3 inflammasome (Q96P20 whole entry): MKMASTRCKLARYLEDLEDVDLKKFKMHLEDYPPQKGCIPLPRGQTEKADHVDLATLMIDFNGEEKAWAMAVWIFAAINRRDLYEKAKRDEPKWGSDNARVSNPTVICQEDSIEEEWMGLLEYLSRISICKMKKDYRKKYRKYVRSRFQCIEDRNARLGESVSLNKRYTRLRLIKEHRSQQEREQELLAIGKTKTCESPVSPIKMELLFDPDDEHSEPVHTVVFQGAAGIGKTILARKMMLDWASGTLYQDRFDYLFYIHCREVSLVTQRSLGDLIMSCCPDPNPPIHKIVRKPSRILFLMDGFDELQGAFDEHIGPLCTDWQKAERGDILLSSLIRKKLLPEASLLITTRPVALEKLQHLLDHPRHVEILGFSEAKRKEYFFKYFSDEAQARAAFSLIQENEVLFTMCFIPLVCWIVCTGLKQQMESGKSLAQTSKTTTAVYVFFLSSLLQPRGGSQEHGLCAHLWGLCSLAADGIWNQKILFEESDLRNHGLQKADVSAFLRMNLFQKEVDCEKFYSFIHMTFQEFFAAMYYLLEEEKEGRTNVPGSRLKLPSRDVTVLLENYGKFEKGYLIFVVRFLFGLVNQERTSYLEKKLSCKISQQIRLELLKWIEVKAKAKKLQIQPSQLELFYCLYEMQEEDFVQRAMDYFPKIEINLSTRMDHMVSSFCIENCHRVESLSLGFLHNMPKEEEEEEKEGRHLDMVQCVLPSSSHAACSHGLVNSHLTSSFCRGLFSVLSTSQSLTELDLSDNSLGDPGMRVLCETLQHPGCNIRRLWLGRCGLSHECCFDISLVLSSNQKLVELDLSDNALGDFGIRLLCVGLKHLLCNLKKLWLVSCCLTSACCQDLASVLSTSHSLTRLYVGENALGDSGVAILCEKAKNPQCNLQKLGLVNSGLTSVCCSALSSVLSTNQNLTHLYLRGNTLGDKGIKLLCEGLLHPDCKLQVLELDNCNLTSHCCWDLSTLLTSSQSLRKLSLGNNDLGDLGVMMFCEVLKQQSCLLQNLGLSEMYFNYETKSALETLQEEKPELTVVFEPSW

Row | IC50 (NLRP3 inflammasome) | IC50 (IL-6) | Compound
1 | 500 to 1000 nM | > 10000 nM | Cc1cc(Cl)ccc1-c1nnc(N(C)[C@@H]2CCCN(C)C2)cc1C [compound 204]
2 | 100 to 500 nM | > 10000 nM | Cc1cc(O[C@@H]2CCCN(C)C2)nnc1-c1ccc(Cl)cc1 [compound 210]

From patent publication US20250074888A1, “PYRIDAZINE DERIVATIVES AS MODULATORS OF NLRP3 INFLAMMASOME AND RELATED METHODS” (Neumora Therapeutics, Inc., priority 2021, published 2025)
